# Measured values from patent publication US20080063642A1, “Methods of using (+)-1,4-dihydro-7-[(3S,4S)-3-methoxy-4-(methylamino)-1-pyrrolidinyl]-4-oxo-1-(2-thiazolyl)-1,8-naphthyridine-3-carboxylic acid for treatment of certain hematologic disorders” (priority 2006, published 2008).
# Where two headings read alike, the source gives them in different places. Marks after values point to notes of the source that are not given here.
# Assays:
# [1] = test system: HL-60 (promyelocytic leukemia); experiment: MTT cell viability assay, HL-60; type: cell-based; details: Homo sapiens, MTT after 72 hours
# Protocol: (§1) The following cell lines were used in this assay: HL-60 (promyelocytic leukemia); Jurkat (T cell leukemia); CCRF-CEM (lymphoblastic leukemia); CEM/C2 (camptothecan resistant derivative of CCRF-CEM).
# (§2) Cells were seeded in 96 wells plates at 3000 cells per well and incubated for 16 hours. Compound dilutions were performed in DMSO from 10 mM with 3 fold dilutions. Titrations were diluted 1:100 in media to achieve final compound concentrations. The 96 well plates were aspirated and compound dilutions in media were added ([…]). MTT analysis was carried out after 72 hours of incubation at 37° C. Briefly, […] of MTT solution was added to each well. Cells were incubated at 37° C. for 1-2 hours. Cells were lysed with the addition of […] cell lysis buffer and MTT was solubilized overnight at 37° C. Plates were read on a spectromax machine with an absorbance measurement at […]. IC50's were calculated (data provided in Table 1) using regression analysis within GraphPad Prism.
# [2] = test system: LM3-Jck human malignant lymphoma tumor; experiment: LM3-Jck xenograft model; type: in vivo; details: for IR (%) tumor inhibition rate: LM3-JcK, 21 days after start
# Protocol: LM3-Jck human malignant lymphoma tumor lobes (2-3 mm square) were transplanted subcutaneously into nude mice. Tumors were allowed to grow to approximately 7-14 mm in diameter. […] Acceptable toxicity was defined as a mean group weight loss of 30% or less and not more than one toxic death among 6 treated animals. Anti-tumor activities of the drugs were assessed 21 days after the start of administration.
# [3] = mouse, in vivo, iv
# Protocol: The effects of dosing were studied on changes in body weight, peripheral cytology, and femoral bone marrow cellularity over time as described below.
# Before beginning the study, all animals were allowed to acclimatize for 3 days from shipping related stress and the health of the mice was assessed daily by observation. Purified water (reverse osmosis) and irradiated food (PicoLab Rodent Diet 20, #5053; Dean's Animal Feeds, San Carlos, Calif.) were provided ad libitum, and the animals were kept on a 12 hour light and dark cycle.
# bone marrow [4] = experiment: Bone marrow/cytology assay (Example 4): bone marrow cellularity; type: in vivo, Female CD-1 mice
# Protocol: (§3) Blood was drawn on days 6, 8, and 12 post initial injection for hematological analysis. Femurs were extracted on day 6 fixed in Streck and H&E stained prior to bone marrow cellularity analysis. […] At 20 mg/kg, cellularity was reduced to 7.5%, while circulating neutrophils were reduced from a pre-dose level of […] to a nadir of 51±24 cells/mL blood on day 8. Absolute neutrophil counts subsequently rebounded and soon returned to normal levels. Total WBCs also reached a nadir on day 8, but returned to normal levels.
# [5] = test system: myeloid cell lineages in bone marrow; experiment: Monotherapy and combination with Ara-C (Example 6): bone marrow smears, differential counts; type: in vivo, Female CD-1 mice; details: SNS-595 treated animals; Day 6
# Protocol: Combination: […] Blood was analyzed at Quality Control Labs (Mountain View, Calif.) for complete blood count and differential count. Bone marrow smears from femurs on Day 6 and Day 12 were prepared and geimsa stained for differential counts. Femurs were also placed in Streck fixative, processed, sectioned and H&E stained. Femur and bone marrow smears were analyzed at BioPathology Sciences (South San Francisco, Calif.) for total cellularity and differential count.
# bone marrow [6] = experiment: Monotherapy and combination with Ara-C (Example 6): bone marrow total cellularity; type: in vivo, Female CD-1 mice
# Protocol: Blood was analyzed at Quality Control Labs (Mountain View, Calif.) for complete blood count and differential count. Bone marrow smears from femurs on Day 6 and Day 12 were prepared and geimsa stained for differential counts. Femurs were also placed in Streck fixative, processed, sectioned and H&E stained. Femur and bone marrow smears were analyzed at BioPathology Sciences (South San Francisco, Calif.) for total cellularity and differential count. […] The compounds were administered on Day 0 and Day 4.
# Jurkat (T cell leukemia) = experiment: MTT cell viability assay, Jurkat; type: cell-based; details: Homo sapiens, MTT after 72 hours
# Protocol: as §1, §2
# [7] = test system: CEM/C2 (camptothecan resistant derivative of CCRF-CEM); experiment: MTT cell viability assay, CEM/C2; type: cell-based; details: Homo sapiens, MTT after 72 hours
# Protocol: as §1, §2
# [8] = test system: circulating neutrophils, WBCs, platelets; set-up: species or system Female CD-1 mice; details: mouse, in vivo
# Protocol: as §3
# [9] = Bone marrow/cytology assay (Example 4): body weight loss; type: in vivo, Female CD-1 mice; details: all dose groups, 5-20 mg/kg
# Protocol: as §3
# FIGS. 5 and 6 show neutrophil and total white blood cell counts from blood samples on day 8 post initial injection. […] Body weight loss was tolerable across all dose groups.
# [10] = CD-1 mouse model; q4d × 2
# [11] = test system: peripheral neutrophils, white blood cells, platelets; experiment: Combination dosing SNS-595 and Ara-C (Example 5): peripheral cytology; type: in vivo, nu/nu mice; details: mouse, in vivo
# Protocol: At various time points described in Table 5, mice were euthanized by CO2 asphyxiation in accordance to Institutional Animal Care and Use Committee (IACUC) guidelines. Blood was collected through cardiac tap and transferred to EDTA tubes. The analysis of murine blood CBC and differential counts for samples in these tubes was conducted (at Quality Clinical Labs, Moutainview). Statistical significance was determined by one-tailed student t-test, using Welch's correction for unequal variances.
# femoral bone marrow = experiment: Combination dosing SNS-595 and Ara-C (Example 5): femoral bone marrow cellularity; type: in vivo, nu/nu mice
# Text: Femurs were harvested for histological evaluation. The femur was placed in Streck fixative, paraffin embedded, sectioned, transferred to slides, and H&E stained (at BioPathology Sciences). Immunohistochemical slides were processed and analyzed for percent cellularity of intact bone marrow.
# [12] = test system: CCRF-CEM acute lymphoblastic leukemia tumor; experiment: CCRF-CEM xenograft model; type: in vivo; details: CCRF-CEM; 25 mg/kg q7d × 3, IV; 20 or 21 days after start
# Protocol: CCRF-CEM acute lymphoblastic leukemia tumor lobes of 2-3 mm square were transplanted subcutaneously into nude mice. Tumors were allowed to grow to approximately 8-20 mm in diameter. […] Acceptable toxicity was defined as a mean group weight loss of 30% or less and not more than one toxic death among 6 treated animals. Anti-tumor activities of the drugs were assessed 20 or 21 days after the start of administration. FIGS. 1-2 and Table 2 provides data for tumor inhibition rate (IR) and survival ratio in the CCRF-CEM and LM3-Jck xenograft models.
# [13] = test system: CCRF-CEM (lymphoblastic leukemia); experiment: MTT cell viability assay, CCRF-CEM; type: cell-based; details: Homo sapiens, MTT after 72 hours
# Protocol: as §1, §2
# [14] = Group 4: SNS-595 15 mg/kg IV q4d × 2
smiles,measurement,setting,value
"CN[C@H]1CN(c2ccc3c(=O)c(C(=O)O)cn(-c4nccs4)c3n2)C[C@@H]1OC [SNS-595, (+)-1,4-dihydro-7-[(3S,4S)-3-methoxy-4-(methylamino)-1-pyrrolidinyl]-4-oxo-1-(2-thiazolyl)-1,8-naphthyridine-3-carboxylic acid]",IC50,[1],0.053 µg/mL
same,IR (%) tumor inhibition rate,"[2]; 20 mg/kg q7d × 3, IV",98.9* %
same,IR (%) tumor inhibition rate,"[2]; 25 mg/kg q7d × 3, IV",98.5* %
same,antitumor activity,"[2]; LM-3 Jck malignant lymphoma, 20 and 25 mg/kg",complete tumor regressions
same,% of Body Wt Nadir,[3]; 5 mg/kg,0%
same,Day of Body Wt Nadir,[3]; 5 mg/kg,0 days
same,% of Body Wt Nadir,[3]; 10 mg/kg,0%
same,Day of Body Wt Nadir,[3]; 10 mg/kg,0 days
same,% of Body Wt Nadir,[3]; 15 mg/kg,−2.8%
same,Day of Body Wt Nadir,[3]; 15 mg/kg,7 days
same,bone marrow cellularity,"bone marrow [4]; 20 mg/kg IV Day 0 and Day 4, femurs day 6",7.5%
same,bone marrow at 12 days post initial injection,"bone marrow [4]; 20 mg/kg, day 12",bone marrow rebound
same,"bone marrow cellularity, dose response","bone marrow [4]; 5, 10, 15, 20 mg/kg IV Day 0 and Day 4, two days after second administration",dose-dependent reduction in cellularity
same,immature neutrophils in bone marrow smears,[5],significant increase
same,Total Cellularity (Avg) Exp #2,bone marrow [6]; SNS-595 10 mg/kg q4d × 2,54%
same,Total Cellularity (Avg) Exp #1,"bone marrow [6]; SNS-595 10 mg/kg q4d × 2, two days after completion of treatment, 10 mg/kg",56%
same,Total Cellularity (Avg) Exp #2,bone marrow [6]; SNS-595 20 mg/kg q4d × 2,18%
same,IC50,Jurkat (T cell leukemia),0.023 µg/mL
same,IC50,[7],0.01 µg/mL
same,platelet response,[8],minor platelet response
same,day of total WBC nadir,[8]; iv,8 days
same,body weight loss,[9],tolerable
same,maximum tolerated dose (MTD),[10],SNS-595 20 mg/kg q4d × 2*
same,"circulating white blood cells, dose response",[11],dose-dependent reduction
same,day by which neutrophils returned to normal levels,[11],≤ 12 days
same,day by which platelets returned to normal levels,[11],≤ 12 days
same,number of neutrophils versus vehicle group,[11],significantly lower than the vehicle group
same,recovery of white blood cells,[11],failed to return to normal levels by day 18
same,number of platelets versus vehicle group,[11]; 5 mg/kg,not significantly decrease
same,number of circulating white blood cells versus vehicle group,[11]; 10 mg/kg,significantly lower than the vehicle group
same,number of white blood cells versus vehicle group,[11]; 15 mg/kg,significantly lower than the vehicle group
same,"total cellularity, femur cross section of representative animal","femoral bone marrow; Day 6, SNS-595 5 mg/kg q4d ×2 IV, Animal #23",60%
same,"total cellularity, femur cross section of representative animal","femoral bone marrow; Day 6, SNS-595 10 mg/kg q4d ×2 IV, Animal #44",50%
same,"total cellularity, femur cross section of representative animal","femoral bone marrow; Day 6, SNS-595 15 mg/kg q4d ×2 IV, Animal #63",20%
same,"total cellularity, femur cross section of representative animal","femoral bone marrow; Day 12, SNS-595 15 mg/kg q4d ×2 IV, Animal #73",100%
same,Average Total Cellularity Day 6,femoral bone marrow; Group 2: SNS-595 5 mg/kg IV q4d × 2,70%
same,Average Total Cellularity Day 6,femoral bone marrow; Group 3: SNS-595 10 mg/kg IV q4d × 2,56%
same,Average Total Cellularity Day 6,femoral bone marrow; [14],26%
same,Average Total Cellularity Day 12,femoral bone marrow; [14],100%
same,reduction in cellularity,femoral bone marrow; SNS-595 10 mg/kg IV single agent,44%
same,"bone marrow cellularity, dose response","femoral bone marrow; SNS-595 single agent 5, 10, 15 mg/kg",dose-dependent reduction in bone marrow cellularity
same,IR (%) tumor inhibition rate,[12],98.1* %
same,IC50,[13],0.018 µg/mL
